Measurements reported in patent EP0407583A1, “DERIVATIVES OF DICHLOR[…] ACYLAMIDO[…] AND INSECTICIDAL, FU[…] HEMATOCIDAL PREPARATIONS BASED ON THEM” (priority 1989, dated 1990).

Legend:
[1] = system: Alternaria sobani; experiment: Inhibition of phytopathogenic fungi growth, laboratory test on potato-dextrose agar; format: cell-based; conditions: active principle 0.01 % by mass in potato-dextrose agar
Description: (§1) A fungicidal composition based on this compound was prepared in the form of a 0.01% solution thereof in distilled water. A fungicidal action of the composition, according to the invention, was tested for inhibition of vegetative fungi growth such as Fusarium moniliforme, Ventura inaequalis, Rhyzoctonia ciolaceae, Botrytis cinereae, Verticillium albo-atrum, Diplodia zeae, Fusarium oxysporum, Rhoma betae, Rhyzoctonia aderholdii, Aspergillus niger, Alternaria sobani, Botrytis allii, Aspergillus fumigatis, Fusarium culmorum, Penicillium cyclopium affecting potato, sugar beet, cotton seeds either in laboratory or field conditions. For testing it to the Petri dishes containing potato-dextrose agar the composition of the invention was.added at the concentration of an active principle of 0.01 % by mass. The Petri dishes containing the same agar culture were inoculated with a mycelium of phytopathogenic fungi. For control dishes the phytopathogenic fungi were inoculated on agar without using the composition of the invention. A fungicidal effect of the composition, according to the invention was tested in comparison with the known fungicidal compositions based on 2,3-dichloro-1,4-naphthoquinone, zinc N,N'-ethylene-bis-dithiocarbamate and tetramethylthiuram disulphide.

[2] = system: Aspergillus fumigatis; experiment: as above; format: cell-based; conditions: active principle 0.01 % by mass in potato-dextrose agar
Description: as §1

[3] = system: Aspergillus niger; experiment: as above; format: cell-based; conditions: active principle 0.01 % by mass in potato-dextrose agar
Description: as §1

[4] = system: Botrytis allii; experiment: as above; format: cell-based; conditions: active principle 0.01 % by mass in potato-dextrose agar
Description: as §1

[5] = system: Botrytis cinereae; experiment: as above; format: cell-based; conditions: active principle 0.01 % by mass in potato-dextrose agar
Description: as §1

[6] = system: Diplodia zeae; experiment: as above; format: cell-based; conditions: active principle 0.01 % by mass in potato-dextrose agar
Description: as §1

[7] = system: Fusarium culmorum; experiment: as above; format: cell-based; conditions: active principle 0.01 % by mass in potato-dextrose agar
Description: as §1

[8] = system: Fusarium moniliforme; experiment: as above; format: cell-based; conditions: active principle 0.01 % by mass in potato-dextrose agar
Description: as §1

[9] = system: Fusarium oxysporum; experiment: as above; format: cell-based; conditions: active principle 0.01 % by mass in potato-dextrose agar
Description: as §1

[10] = system: Penicillium cyclopium; experiment: as above; format: cell-based; conditions: active principle 0.01 % by mass in potato-dextrose agar
Description: as §1

[11] = system: Rhoma betae; experiment: as above; format: cell-based; conditions: active principle 0.01 % by mass in potato-dextrose agar
Description: as §1

[12] = system: Rhyzoctonia aderholdii; experiment: as above; format: cell-based; conditions: active principle 0.01 % by mass in potato-dextrose agar
Description: as §1

[13] = system: Rhyzoctonia violaceae; experiment: as above; format: cell-based; conditions: active principle 0.01 % by mass in potato-dextrose agar
Description: as §1

[14] = system: Venturia inaequalis; experiment: as above; format: cell-based; conditions: active principle 0.01 % by mass in potato-dextrose agar
Description: as §1

[15] = system: Verticillium albo-atrum; experiment: as above; format: cell-based; conditions: active principle 0.01 % by mass in potato-dextrose agar
Description: as §1

[16] = system: Alternaria sobani; experiment: Inhibition of phytopathogenic fungi, field test on affected potato plants; format: in vivo; conditions: 5 m^2 plots of affected potato plants sprayed
Description: (§2) For field tests the plots of 5 m^2 in size with potato plants affected by Fusarium moniliforme, Venturia inaequalis, Rhyzoctonia violaceae, Botrytis cinereae, Verticillium albo-atrum, Diplodia zeae, Fusarium oxysporum, Rhoma betae, Rhyzoctonia aderholdii, Aspergillus niger, Alternaria sobani, Botrytis allii, Aspergillus fumigatis, Fusarium culmorum, Penicillium cyclopium were sprayed with the fungicide of the invention. To compare, the similar plots of the affected potato plants were aprayed with the known compositions indicated above.

[17] = system: Aspergillus fumigatis; experiment: as above; format: in vivo; conditions: 5 m^2 plots of affected potato plants sprayed
Description: as §2

[18] = system: Aspergillus niger; experiment: as above; format: in vivo; conditions: 5 m^2 plots of affected potato plants sprayed
Description: as §2

[19] = system: Botrytis allii; experiment: as above; format: in vivo; conditions: 5 m^2 plots of affected potato plants sprayed
Description: as §2

[20] = system: Botrytis cinereae; experiment: as above; format: in vivo; conditions: 5 m^2 plots of affected potato plants sprayed
Description: as §2

[21] = system: Diplodia zeae; experiment: as above; format: in vivo; conditions: 5 m^2 plots of affected potato plants sprayed
Description: as §2

[22] = system: Fusarium culmorum; experiment: as above; format: in vivo; conditions: 5 m^2 plots of affected potato plants sprayed
Description: as §2

[23] = system: Fusarium moniliforme; experiment: as above; format: in vivo; conditions: 5 m^2 plots of affected potato plants sprayed
Description: as §2

[24] = system: Fusarium oxysporum; experiment: as above; format: in vivo; conditions: 5 m^2 plots of affected potato plants sprayed
Description: as §2

[25] = system: Penicillium cyclopium; experiment: as above; format: in vivo; conditions: 5 m^2 plots of affected potato plants sprayed
Description: as §2

[26] = system: Rhoma betae; experiment: as above; format: in vivo; conditions: 5 m^2 plots of affected potato plants sprayed
Description: as §2

[27] = system: Rhyzoctonia aderholdii; experiment: as above; format: in vivo; conditions: 5 m^2 plots of affected potato plants sprayed
Description: as §2

[28] = system: Rhyzoctonia violaceae; experiment: as above; format: in vivo; conditions: 5 m^2 plots of affected potato plants sprayed
Description: as §2

[29] = system: Venturia inaequalis; experiment: as above; format: in vivo; conditions: 5 m^2 plots of affected potato plants sprayed
Description: as §2

[30] = system: Verticillium albo-atrum; experiment: as above; format: in vivo; conditions: 5 m^2 plots of affected potato plants sprayed
Description: as §2

[31] = Solubility (qualitative); conditions: water, alcohols, acetone

Structure (SMILES) | Inhibition of growth of phytopathogenic fungi colonies, % Alternaria sobani test laboratory [1] | Inhibition of growth of phytopathogenic fungi colonies, % Aspergillus fumigatis Tests laboratory [2] | Inhibition of growth of phytopathogenic fungi colonies, % Aspergillus niger test laboratory [3] | Inhibition of growth of phytopathogenic fungi colonies, % Botrytis allii test laboratory [4] | Inhibition of growth of phytopathogenic fungi colonies, % Botrytis cinereae test laboratory [5] | Inhibition of growth of phytopathogenic fungi colonies, % Diplodia zeae test laboratory [6] | Inhibition of growth of phytopathogenic fungi colonies, % Fusarium culmorum Tests laboratory [7] | Inhibition of growth of phytopathogenic fungi colonies, % Fusatium monili-forme test laboratory [8] | Inhibition of growth of phytopathogenic fungi colonies, % Fusarium oxysporum test laboratory [9] | Inhibition of growth of phytopathogenic fungi colonies, % Penicillium cyclopium Tests laboratory [10] | Inhibition of growth of phytopathogenic fungi colonies, % Rhoma betae test laboratory [11] | Inhibition of growth of phytopathogenic fungi colonies, % Rhyzoctonia aderholdii test laboratory [12] | Inhibition of growth of phytopathogenic fungi colonies, % Rhyzoctonia violaceae test laboratory [13] | Inhibition of growth of phytopathogenic fungi colonies, % Venturia inaequalis test laboratory [14] | Inhibition of growth of phytopathogenic fungi colonies, % Verticillium albo--atrum test laboratory [15] | Inhibition of growth of phytopathogenic fungi colonies, % Alternaria sobani test field [16] | Inhibition of growth of phytopathogenic fungi colonies, % Aspergillus fumigatis Tests field [17] | Inhibition of growth of phytopathogenic fungi colonies, % Aspergillus niger test field [18] | Inhibition of growth of phytopathogenic fungi colonies, % Botrytis allii test field [19] | Inhibition of growth of phytopathogenic fungi colonies, % Botrytis cinereae test field [20] | further results
O=C(NP(=O)(NC(CO)C(O)c1ccc([N+](=O)[O-])cc1)NC(CO)C(O)c1ccc([N+](=O)[O-])cc1)c1ccc(Cl)cc1 (centres unmarked) [Example 12, para-chlorobenzoylamidophosphoric acid di-1-para-nitrophenyl-1,3-propandiol-2-amide] | 48% | 87% | 66% | 100% | 34% | 100% | 66% | 59% | 60% | 87% | 64% | 100% | 24% | 70% | 100% | 46% | 80% | 59% | 99% | 33% | Inhibition of growth of phytopathogenic fungi colonies, % Diplodia zeae test field [21]: 98%; Inhibition of growth of phytopathogenic fungi colonies, % Fusarium culmorum Tests field [22]: 61%; Inhibition of growth of phytopathogenic fungi colonies, % Fusatium monili-forme test field [23]: 56%; Inhibition of growth of phytopathogenic fungi colonies, % Fusarium oxysporum test field [24]: 59%; Inhibition of growth of phytopathogenic fungi colonies, % Penicillium cyclopium Tests field [25]: 84%; Inhibition of growth of phytopathogenic fungi colonies, % Rhoma betae test field [26]: 63%; Inhibition of growth of phytopathogenic fungi colonies, % Rhyzoctonia aderholdii test field [27]: 100%; Inhibition of growth of phytopathogenic fungi colonies, % Rhyzoctonia violaceae test field [28]: 22%; Inhibition of growth of phytopathogenic fungi colonies, % Venturia inaequalis test field [29]: 65%; Inhibition of growth of phytopathogenic fungi colonies, % Verticillium albo--atrum test field [30]: 100%; solubility [31]: soluble in water, alcohols, acetone
O=C(NP(=O)(Nc1ccc(Cl)cc1[N+](=O)[O-])Nc1ccc(Cl)cc1[N+](=O)[O-])c1ccc(Cl)cc1 [Example 14, para-chlorobenzoylamidophosphoric acid di-para-chloro--ortho-nitroanilide] | 100% | 100% | 6% | 100% | 0% | 100% | 100% | 56% | 50% | 79% | 68% | 100% | 35% | 50% | 40% | 93% | 93% | 5% | 98% | 0% | Inhibition of growth of phytopathogenic fungi colonies, % Diplodia zeae test field [21]: 100%; Inhibition of growth of phytopathogenic fungi colonies, % Fusarium culmorum Tests field [22]: 100%; Inhibition of growth of phytopathogenic fungi colonies, % Fusatium monili-forme test field [23]: 55%; Inhibition of growth of phytopathogenic fungi colonies, % Fusarium oxysporum test field [24]: 48%; Inhibition of growth of phytopathogenic fungi colonies, % Penicillium cyclopium Tests field [25]: 71%; Inhibition of growth of phytopathogenic fungi colonies, % Rhoma betae test field [26]: 67%; Inhibition of growth of phytopathogenic fungi colonies, % Rhyzoctonia aderholdii test field [27]: 100%; Inhibition of growth of phytopathogenic fungi colonies, % Rhyzoctonia violaceae test field [28]: 34%; Inhibition of growth of phytopathogenic fungi colonies, % Venturia inaequalis test field [29]: 49%; Inhibition of growth of phytopathogenic fungi colonies, % Verticillium albo--atrum test field [30]: 39%; solubility [31]: soluble in water, alcohols, acetone
